# Test results: the supplement of paper PMC10307832
# What was measured:
# Assay in all cases: relative viability (nuclei count vs DMSO), 5 days (fraction); higher = more cells survive
# NCI-H441 = tested on: NCI-H441
# Method in brief: (§1)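 For relative viability, nuclei counts in treated wells were divided by those in vehicle wells. Lung cancer cell lines had been pin-tool dosed in 1536-well plates the day after seeding and cultured for 5 days, then fixed and stained in one step (final 0.05% Triton X-100, 1% formaldehyde, 1 ug/ml Hoechst) and imaged at 4×. Doses were one drug alone or a fixed anchor-drug dose plus five library-drug doses (not always all listed) in √10 steps, and values are duplicate-plate medians.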
# NCI-H1792 = tested on: NCI-H1792
# Method in brief: as §1
# ABC-1 = tested on: ABC-1
# Method in brief: as §1
# NCI-H23 = tested on: NCI-H23
# Method in brief: as §1
# LOU-NH91 = tested on: LOU-NH91
# Method in brief: as §1
# RERF-LC-KJ = tested on: RERF-LC-KJ
# Method in brief: as §1
# NCI-H322M = tested on: NCI-H322M
# Method in brief: as §1
# NCI-H2085 = tested on: NCI-H2085
# Method in brief: as §1
# NCI-H1355 = tested on: NCI-H1355
# Method in brief: as §1
# NCI-H1755 = tested on: NCI-H1755
# Method in brief: as §1
# NCI-H2023 = tested on: NCI-H2023
# Method in brief: as §1
# NCI-H2405 = tested on: NCI-H2405
# Method in brief: as §1
# NCI-H2170 = tested on: NCI-H2170
# Method in brief: as §1
# HOP-62 = tested on: HOP-62
# Method in brief: as §1
# NCI-H2009 = tested on: NCI-H2009
# Method in brief: as §1
# ChaGo-K-1 = tested on: ChaGo-K-1
# Method in brief: as §1
# SK-MES-1 = tested on: SK-MES-1
# Method in brief: as §1
# LCLC-97TM1 = tested on: LCLC-97TM1
# Method in brief: as §1
# NCI-H727 = tested on: NCI-H727
# Method in brief: as §1
# HCC-78 = tested on: HCC-78
# Method in brief: as §1
# NCI-H650 = tested on: NCI-H650
# Method in brief: as §1
# NCI-H1437 = tested on: NCI-H1437
# Method in brief: as §1
# UMC-11 = tested on: UMC-11
# Method in brief: as §1
smiles,measurement,setting,value
O=C(O)CCCCC(CCSCc1ccccc1)SCc1ccccc1 (centres undefined) [CPI-613] + CS(=O)(=O)N1CCN(Cc2cc3nc(-c4cccc5[nH]ncc45)nc(N4CCOCC4)c3s2)CC1 [Pictilisib] (partner 1 µM),relative viability,NCI-H441; first compound 5 µM,0.498
same,relative viability,NCI-H441; first compound 15.81 µM,0.468
same,relative viability,NCI-H441; first compound 50 µM,0.417
same,relative viability,NCI-H441; first compound 158.11 µM,0.147
same,relative viability,NCI-H441; first compound 500 µM,0.0254
same,relative viability,NCI-H1792; first compound 5 µM,0.29
same,relative viability,NCI-H1792; first compound 15.81 µM,0.229
same,relative viability,NCI-H1792; first compound 50 µM,0.272
same,relative viability,NCI-H1792; first compound 158.11 µM,0.23
same,relative viability,NCI-H1792; first compound 500 µM,0.207
same,relative viability,ABC-1; first compound 5 µM,0.771
same,relative viability,ABC-1; first compound 15.81 µM,0.68
same,relative viability,ABC-1; first compound 50 µM,0.807
same,relative viability,ABC-1; first compound 158.11 µM,0.384
same,relative viability,ABC-1; first compound 500 µM,0.246
same,relative viability,NCI-H23; first compound 5 µM,0.478
same,relative viability,NCI-H23; first compound 15.81 µM,0.455
same,relative viability,NCI-H23; first compound 50 µM,0.457
same,relative viability,NCI-H23; first compound 158.11 µM,0.153
same,relative viability,NCI-H23; first compound 500 µM,0.009
same,relative viability,LOU-NH91; first compound 5 µM,0.499
same,relative viability,LOU-NH91; first compound 15.81 µM,0.519
same,relative viability,LOU-NH91; first compound 50 µM,0.541
same,relative viability,LOU-NH91; first compound 158.11 µM,0.532
same,relative viability,LOU-NH91; first compound 500 µM,0.511
same,relative viability,RERF-LC-KJ; first compound 5 µM,0.455
same,relative viability,RERF-LC-KJ; first compound 15.81 µM,0.496
same,relative viability,RERF-LC-KJ; first compound 50 µM,0.605
same,relative viability,RERF-LC-KJ; first compound 158.11 µM,0.558
same,relative viability,RERF-LC-KJ; first compound 500 µM,0.438
same,relative viability,NCI-H322M; first compound 5 µM,0.511
same,relative viability,NCI-H322M; first compound 15.81 µM,0.426
same,relative viability,NCI-H322M; first compound 50 µM,0.496
same,relative viability,NCI-H322M; first compound 158.11 µM,0.469
same,relative viability,NCI-H322M; first compound 500 µM,0.53
same,relative viability,NCI-H2085; first compound 5 µM,0.505
same,relative viability,NCI-H2085; first compound 15.81 µM,0.492
same,relative viability,NCI-H2085; first compound 50 µM,0.4
same,relative viability,NCI-H2085; first compound 158.11 µM,0.383
same,relative viability,NCI-H2085; first compound 500 µM,0.343
same,relative viability,NCI-H1355; first compound 5 µM,0.417
same,relative viability,NCI-H1355; first compound 15.81 µM,0.389
same,relative viability,NCI-H1355; first compound 50 µM,0.374
same,relative viability,NCI-H1355; first compound 158.11 µM,0.29
same,relative viability,NCI-H1355; first compound 500 µM,0.0921
same,relative viability,NCI-H1755; first compound 5 µM,0.39
same,relative viability,NCI-H1755; first compound 15.81 µM,0.4
same,relative viability,NCI-H1755; first compound 50 µM,0.415
same,relative viability,NCI-H1755; first compound 158.11 µM,0.359
same,relative viability,NCI-H1755; first compound 500 µM,0.116
same,relative viability,NCI-H2023; first compound 5 µM,0.233
same,relative viability,NCI-H2023; first compound 15.81 µM,0.218
same,relative viability,NCI-H2023; first compound 50 µM,0.231
same,relative viability,NCI-H2023; first compound 158.11 µM,0.0548
same,relative viability,NCI-H2023; first compound 500 µM,0.0183
same,relative viability,NCI-H2405; first compound 5 µM,0.493
same,relative viability,NCI-H2405; first compound 15.81 µM,0.331
same,relative viability,NCI-H2405; first compound 50 µM,0.425
same,relative viability,NCI-H2405; first compound 158.11 µM,0.388
same,relative viability,NCI-H2405; first compound 500 µM,0.421
same,relative viability,NCI-H2170; first compound 5 µM,0.293
same,relative viability,NCI-H2170; first compound 15.81 µM,0.307
same,relative viability,NCI-H2170; first compound 50 µM,0.256
same,relative viability,NCI-H2170; first compound 158.11 µM,0.293
same,relative viability,NCI-H2170; first compound 500 µM,0.0903
same,relative viability,HOP-62; first compound 5 µM,0.526
same,relative viability,HOP-62; first compound 15.81 µM,0.7
same,relative viability,HOP-62; first compound 50 µM,0.704
same,relative viability,HOP-62; first compound 158.11 µM,0.496
same,relative viability,HOP-62; first compound 500 µM,0.0332
same,relative viability,NCI-H2009; first compound 5 µM,0.855
same,relative viability,NCI-H2009; first compound 15.81 µM,0.675
same,relative viability,NCI-H2009; first compound 50 µM,0.722
same,relative viability,NCI-H2009; first compound 158.11 µM,0.0928
same,relative viability,NCI-H2009; first compound 500 µM,0.0311
same,relative viability,ChaGo-K-1; first compound 5 µM,0.519
same,relative viability,ChaGo-K-1; first compound 15.81 µM,0.663
same,relative viability,ChaGo-K-1; first compound 50 µM,0.707
same,relative viability,ChaGo-K-1; first compound 158.11 µM,0.612
same,relative viability,ChaGo-K-1; first compound 500 µM,0.33
same,relative viability,SK-MES-1; first compound 5 µM,0.368
same,relative viability,SK-MES-1; first compound 15.81 µM,0.314
same,relative viability,SK-MES-1; first compound 50 µM,0.363
same,relative viability,SK-MES-1; first compound 158.11 µM,0.399
same,relative viability,SK-MES-1; first compound 500 µM,0.371
same,relative viability,LCLC-97TM1; first compound 5 µM,0.191
same,relative viability,LCLC-97TM1; first compound 15.81 µM,0.164
same,relative viability,LCLC-97TM1; first compound 50 µM,0.174
same,relative viability,LCLC-97TM1; first compound 158.11 µM,0.192
same,relative viability,LCLC-97TM1; first compound 500 µM,0.0531
same,relative viability,NCI-H727; first compound 5 µM,0.359
same,relative viability,NCI-H727; first compound 15.81 µM,0.348
same,relative viability,NCI-H727; first compound 50 µM,0.348
same,relative viability,NCI-H727; first compound 158.11 µM,0.33
same,relative viability,NCI-H727; first compound 500 µM,0.0223
same,relative viability,HCC-78; first compound 5 µM,0.203
same,relative viability,HCC-78; first compound 15.81 µM,0.167
same,relative viability,HCC-78; first compound 158.11 µM,0.156
same,relative viability,HCC-78; first compound 500 µM,0.206
same,relative viability,NCI-H650; first compound 5 µM,0.805
same,relative viability,NCI-H650; first compound 15.81 µM,0.861
same,relative viability,NCI-H650; first compound 50 µM,0.855
same,relative viability,NCI-H650; first compound 158.11 µM,0.742
same,relative viability,NCI-H650; first compound 500 µM,0.736
same,relative viability,NCI-H1437; first compound 5 µM,0.433
same,relative viability,NCI-H1437; first compound 15.81 µM,0.286
same,relative viability,NCI-H1437; first compound 50 µM,0.435
same,relative viability,NCI-H1437; first compound 158.11 µM,0.181
same,relative viability,NCI-H1437; first compound 500 µM,0.0176
same,relative viability,UMC-11; first compound 5 µM,0.804
same,relative viability,UMC-11; first compound 15.81 µM,0.698
same,relative viability,UMC-11; first compound 50 µM,0.496
same,relative viability,UMC-11; first compound 158.11 µM,0.642
same,relative viability,UMC-11; first compound 500 µM,0.104
